Data set [1] deals with SW480. As to the kind of experiment: Growth inhibition of human SW480 cells incubated for 1.5 hrs by MTT assay. The format is functional, cell-based. (Tetrazolium assays rely on reduction of a dye to a coloured formazan, in cell work by metabolically active cells.)
Data set [2] has as its system CT26. The data set is described as follows: Growth inhibition of CT26 cells incubated for 1.5 hrs by MTT assay. The class given is functional, cell-based. The settings on record: Mus musculus, CT26, 1.5 h.
Data set [3] concerns the target Tubulin (Bos taurus) (UniProt Q6B856+Q862L2+Q862F3). As to the kind of experiment: Inhibition of bovine brain tubulin polymerization at 3 uM measured at 2 to 20 mins by spectrophotometer analysis relative to control. The settings on record: time 2-20 min.
The target of data set [4] is Tubulin beta (Homo sapiens) (UniProt P68371+Q9H4B7+Q13509+P04350+Q3ZCM7+P07437+Q13885+Q9BVA1+Q9BUF5+A6NNZ2). The data set is described as follows: Binding affinity to beta-tubulin colchicine binding site in human HCT-116 cells assessed as inhibition of EBI-beta-tubulin adduct band formation at 1 to 25 uM preincubated for 2 hrs followed by EBI addition measured after 1.5 hrs by EBI competition based Western blotting analysis. The settings on record: dose 1-25 µM, time 3.5 hrs. The format is cell-based.

In data set [5] the test system is HCT-116. The data set is described as follows: Induction of cell cycle arrest in human HCT-116 cells assessed as accumulation of cells at G1 phase at 3 uM incubated for 24 hrs by flow cytometry analysis (reference value: 68.74%). The class given is functional.
The test system of data set [6] is HCT-116. The data set is described as follows: Induction of cell cycle arrest in human HCT-116 cells assessed as accumulation of cells at G2/M phase at 6 uM incubated for 24 hrs by flow cytometry analysis (reference value: 18.25%). The class given is functional.
Data set [7] has as its system HCT-116. The data set is described as follows: Induction of cell cycle arrest in human HCT-116 cells assessed as accumulation of cells at G2 phase at 6 uM incubated for 24 hrs by flow cytometry analysis (reference value: 18.25%). The class given is functional.
Data set [8] relates to HCT-116. The data set is described as follows: Induction of cell cycle arrest in human HCT-116 cells assessed as accumulation of cells at S phase at 3 uM incubated for 24 hrs by flow cytometry analysis (reference value: 3.61%). The format is functional. (Flow cytometry measures light scatter and fluorescence of single cells or particles in a stream.)
Data set [9] deals with HCT-116. The data set is described as follows: Induction of cell cycle arrest in human HCT-116 cells assessed as accumulation of cells at S phase at 6 uM incubated for 24 hrs by flow cytometry analysis (reference value: 3.61%). The class given is functional.
The subject of data set [10] is HCT-116. The data set is described as follows: Inhibition of colony formation in human HCT-116 cells incubated for 48 hrs by crystal violet staining based analysis. The class given is functional, cell-based. The settings on record: dose 0.1-2 µM.
The test system of data set [11] is HCT-116. The data set is described as follows: Antiproliferative activity against human HCT-116 cells assessed as inhibition of cell growth at 2 uM incubated for 2 weeks by […]. The class given is functional, cell-based.
Data set [12] concerns HCT-116. As to the kind of experiment: Inhibition of colony formation in human HCT-116 cells at 0.5 uM incubated for 48 hrs by crystal violet staining based analysis. The class given is functional. The settings on record: HCT-116, 48 h, values are per cent of control.
For data set [13], the system named is HCT-116. As to the kind of experiment: Inhibition of cell migration in human HCT-116 cells at 0.5 uM measured for 24 hrs by scratch wound healing assay. The class given is functional.
Data set [14] is described as follows: Potency index, ratio of test compound IC50 to 5-fluorouracil IC50 for cytotoxicity against HEK293 cells assessed as inhibition of cell growth incubated 1.5 hrs by MTT assay. The format is toxicity, cell-based. The settings on record: human, read-out: Ratio IC50.
Data set [15] concerns the target hERG (KCNH2) (Homo sapiens, UniProt Q12809). The data set is described as follows: Inhibition of hERG expressed in CHO cells at 40 uM by automated patch clamp analysis relative to control. The class given is toxicity, cell-based. The settings on record: CHO cells that express hERG.

This note sets out measurements from ChEMBL document CHEMBL5329222, “Discovery of novel tubulin CBSI (R)-9k from the indanone scaffold for the treatment of colorectal cancer” (RSC Med Chem, 2023).

Calls of active or inactive are those of the source. The calls are words filed in the database; no cut-off is given here.

The term IC50 denotes the midpoint of a concentration-inhibition curve. Higher therefore signals lower potency. The inhibition is how much of the control response was suppressed.

Sequence of hERG (KCNH2) (Q12809 whole entry): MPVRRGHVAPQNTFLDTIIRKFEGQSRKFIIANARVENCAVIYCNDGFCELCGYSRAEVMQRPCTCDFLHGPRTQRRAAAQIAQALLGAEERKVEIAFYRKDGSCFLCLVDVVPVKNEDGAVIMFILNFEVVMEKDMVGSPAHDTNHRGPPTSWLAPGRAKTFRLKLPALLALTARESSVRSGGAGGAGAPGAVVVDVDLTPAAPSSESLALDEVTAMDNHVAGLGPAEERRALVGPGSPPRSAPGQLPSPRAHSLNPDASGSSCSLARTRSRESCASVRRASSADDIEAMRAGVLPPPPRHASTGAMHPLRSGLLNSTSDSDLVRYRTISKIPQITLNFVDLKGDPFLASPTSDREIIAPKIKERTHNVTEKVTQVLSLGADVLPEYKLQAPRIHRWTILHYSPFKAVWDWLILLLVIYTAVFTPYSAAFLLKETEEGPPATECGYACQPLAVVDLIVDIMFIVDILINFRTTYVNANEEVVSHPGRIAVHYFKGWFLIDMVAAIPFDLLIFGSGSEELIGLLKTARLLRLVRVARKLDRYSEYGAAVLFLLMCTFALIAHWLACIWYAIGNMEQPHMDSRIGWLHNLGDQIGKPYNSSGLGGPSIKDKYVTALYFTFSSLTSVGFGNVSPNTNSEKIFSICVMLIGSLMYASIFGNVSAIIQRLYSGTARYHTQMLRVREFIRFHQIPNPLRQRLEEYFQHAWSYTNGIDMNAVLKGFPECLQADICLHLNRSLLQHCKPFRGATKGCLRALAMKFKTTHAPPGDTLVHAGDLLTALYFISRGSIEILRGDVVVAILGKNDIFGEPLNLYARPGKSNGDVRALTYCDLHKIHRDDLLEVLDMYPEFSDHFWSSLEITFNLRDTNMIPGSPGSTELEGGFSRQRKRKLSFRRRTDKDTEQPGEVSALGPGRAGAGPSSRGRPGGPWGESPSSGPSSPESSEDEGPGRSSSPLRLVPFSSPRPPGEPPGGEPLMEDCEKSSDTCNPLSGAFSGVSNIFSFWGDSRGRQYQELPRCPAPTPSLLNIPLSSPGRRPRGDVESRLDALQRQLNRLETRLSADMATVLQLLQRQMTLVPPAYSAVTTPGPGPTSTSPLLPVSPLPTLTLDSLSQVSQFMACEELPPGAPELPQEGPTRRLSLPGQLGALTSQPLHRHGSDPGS

As for `CCOc1ccc([C@H]2CC(=O)c3cc(OC)c(OC)c(OC)c32)cc1F`, the IC50 in [1] is 1.31 µM; in data set [2], 4.11 µM. For the same molecule, the inhibition is 30% in data set [3] and “Dose-Dependent Effect” in [10]. The outcome in data set [4] and in [11] was Active. Also, the Activity in data set [5] is recorded as 62.85%; in data set [6], 47.34%; in data set [7], 47.34%; in data set [8], 6.6%; in data set [9], 5.1%. The same molecule gave a growth, % of control at 0.5 µM in [12] of 30.8%. This molecule displayed an inhibition at 0.5 µM in data set [13] of 21%. Moreover, the selectivity ratio at 1.5 h in data set [14] turned out to be 1.39. The inhibition at 40 µM in data set [15] came out at 42%.
